Reference: patent US20070092527A1, “Proton-sensing g-protein coupled receptors and dna sequences thereof” (NOVARTIS AG, priority 2003, published 2007)

What was measured:
OGR1 [1] = biological target: T1, OGR1 (Homo sapiens, UniProt Q15743); experiment: Inositol phosphate (IP) formation assay, cells expressing OGR1; assay type: cell-based; settings: for Inhibition of OGR1-dependent IP formation: stimulated at pH 6.9, micromolar concentrations
T1 construct: His; expressed in transfected cells
Target sequence in this assay (Q15743 whole entry): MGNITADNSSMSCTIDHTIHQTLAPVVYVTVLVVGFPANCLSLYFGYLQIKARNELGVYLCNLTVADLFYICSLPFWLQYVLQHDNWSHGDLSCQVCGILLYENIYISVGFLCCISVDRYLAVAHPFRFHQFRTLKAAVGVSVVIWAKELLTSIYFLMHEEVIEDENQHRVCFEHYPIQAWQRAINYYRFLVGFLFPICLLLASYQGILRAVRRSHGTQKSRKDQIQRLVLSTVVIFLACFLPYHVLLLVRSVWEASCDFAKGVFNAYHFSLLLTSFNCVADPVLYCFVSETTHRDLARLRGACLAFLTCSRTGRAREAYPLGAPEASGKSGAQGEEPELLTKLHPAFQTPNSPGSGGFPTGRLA

Human GPR4 [2] = biological target: T2, Human GPR4 (Homo sapiens, UniProt P46093); experiment: cAMP formation assay, GPR4; assay type: cell-based; settings: GPR4
T2 construct: Human GPR4 is amplified from genomic DNA using primers GPR4F and GPR4R; expressed in transfected cells; host or cells: HEK293 (transient)
Description: (§1) Human GPR4 is amplified from genomic DNA using primers GPR4F and GPR4R (5′ CACC ATGGGCAACCACACGTGGGAGGGCTGC 3′ and 5′ TCATTGTGCTGGCGGCAGCATCTTCAGCTGCA 3′ respectively). The PCR reaction mixture contains 0.2 mM dNTPs, 1×PCR buffer containing 1.5 mM MgCl2, 0.5 Units Taq DNA polymerase, 40 pmol each primer and sterile water in a total volume of 50 μl. The template for this reaction is human genomic DNA (Promega, Southampton, UK). PCR is performed using a Biometra T3 Thermocycler using the following cycling conditions: Denaturation at 95° C. for 2 min followed by 35 cycles of denaturation at 95° C. for 15s, annealing at 60° C. for 15 s, and extension at 72° C. for 1 min. A final extension at 72° C. is performed for 7 min. The 1.1 kb PCR product is purified and cloned pcDNA3.1 DN5-His-TOPO (Invitrogen, Paisley, UK).

Human GPR4 [3] = biological target: T3, Human GPR4 (Homo sapiens, UniProt P46093, E51Q/F19H/F93P/Q349E); experiment: cAMP formation assay, GPR4; assay type: cell-based
T3 construct: Human GPR4 is amplified from genomic DNA using primers GPR4F and GPR4R; expressed in transfected cells; host or cells: HEK293 (transient)
Description: as §1

[4] = system: forskolin-stimulated adenylyl cyclase; experiment: Forskolin-stimulated adenylyl cyclase in other cell systems; assay type: cell-based
Human TDAG8 [5] = biological target: T4, Human TDAG8 (Homo sapiens, UniProt Q8IYL9); experiment: cAMP formation assay, TDAG8; assay type: cell-based; settings: TDAG8
T4 construct: His; expressed in transfected cells; host or cells: CCL39 (cAMP formation); CCL39 CRE-luc (luciferase reporter)
Description: (§2) Stable cell lines expressing TDAG8 are generated in either CCL39 cells or in CCL39 CRE-luc cells which stably express a cAMP-dependent luciferase reporter to detect changes in cAMP in response to ligand. Stable cell lines are generated In the above cell lines by transfecting the TDAG8 cDNA expression construct using Effectene (Qiagen, Basel, Switzerland) according to the manufacturers protocol. Transfected cells are selected in the presence of 400 μg/ml of G418. After 3 weeks of antibiotic selection, individual clones are picked and expanded for further analysis.

[6] = system: thrombin-stimulated IP formation (endogenous receptors in CCL39 cells); experiment: Thrombin-stimulated IP formation in CCL39 cells; assay type: cell-based, hamster; settings: for Effect on thrombin-stimulated IP formation: control CCL39 cells
[7] = system: MG63 human osteosarcoma cells; experiment: IP formation in MG63 human osteosarcoma cells (endogenous OGR1 mRNA); assay type: cell-based
OGR1 [8] = biological target: T1, OGR1; experiment: Cytoplasmic calcium transients (Fluo-3, fluorescence-imaging plate reader), CCL39 cells transfected with OGR1; assay type: cell-based; settings: shift of extracellular pH from pH 7.6; mean+/-sem, N=3
Description: Method: Cytoplasmic calcium transients are recorded using the calcium indicator Fluo-3 and a fluorescence-imaging plate reader (Molecular Devices/BucherBiotech, Basel, Switzerland).
CCL39 cells transfected with OGR1 are loaded with the acetoxymethylester of the dye (2 μg/ml) for 1 h at 37° C. in full medium containing 5 mM probenicide to inhibit the multidrug resistance transporter. […] To identify receptor antagonists, test compounds are added during the last 15 minutes of this incubation. After transfer to the reader a baseline is recorded (Fb), and cells are then stimulated by addition of an appropriate amount of stronger buffer (20 mM HEPES, pH 6), inducing acidification.
Alternatively, test compounds are added at this stage to identify agonistic molecules. The fluorescence readout F is normalised calculating F′=(F−Fb)/Fb.
Target sequence in this assay (Q15743 whole entry T18I/I19T): as the sequence (Q15743 whole entry) above, with T18I, I19T counted along it

Human TDAG8 [9] = biological target: T5, Human TDAG8 (Homo sapiens, UniProt Q8IYL9, A43P/F130I/N97L/Q180E/W80T); experiment: cAMP formation assay, TDAG8; assay type: cell-based; settings: CCL39 cells stably expressing the receptor; mean+/-sem, N=6
T5 construct: His; expressed in transfected cells; host or cells: CCL39 (cAMP formation); CCL39 CRE-luc (luciferase reporter)
Description: as §2

Human TDAG8 [10] = biological target: T5, Human TDAG8; experiment: cAMP luciferase reporter assay, TDAG8 in CCL39 CRE-luc cells; assay type: cell-based; settings: CCL39 CRE-luc cells stably expressing the receptor; mean+/-sem, N=7
Description: as §2
Cells co-expressing TDAG8 and a cAMP luciferase reporter, as described in Example 8, are plated at 10-20,000 cells per well in white 96 well plates. The day before performing the assay the medium is changed for serum-free DMEM and the cells are incubated overnight at 37° C. in the presence of 5% CO2. […] 100 μl of the appropriate HBS buffer containing the to be tested compound (e.g. from any in-house or commercially available compound library) are then added on the cells. […] Agonists in the assay produce an increase in luminescence whereas antagonists produce a decrease in the luminescence. E.g. antagonists are characterised in the assay by a decrease in luminescence signal compared to the no compound control and e.g. in acidic pH buffer at pH 6.8 or pH 7.0 or at half-maximal activation of human TDAG8. […]

T3 sequence (P46093 whole entry F19H/E51Q/F93P/Q349E): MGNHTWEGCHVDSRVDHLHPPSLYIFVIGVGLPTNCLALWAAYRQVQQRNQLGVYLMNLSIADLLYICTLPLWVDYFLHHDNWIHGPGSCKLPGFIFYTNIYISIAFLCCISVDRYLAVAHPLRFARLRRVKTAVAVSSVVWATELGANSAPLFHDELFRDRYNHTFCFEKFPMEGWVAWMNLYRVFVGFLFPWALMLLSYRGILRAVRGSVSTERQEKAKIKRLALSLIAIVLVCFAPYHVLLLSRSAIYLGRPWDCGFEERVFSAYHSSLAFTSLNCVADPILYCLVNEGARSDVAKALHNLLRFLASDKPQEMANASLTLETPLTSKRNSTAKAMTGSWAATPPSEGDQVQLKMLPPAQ
T5 sequence (Q8IYL9 whole entry A43P/W80T/N97L/F130I/Q180E): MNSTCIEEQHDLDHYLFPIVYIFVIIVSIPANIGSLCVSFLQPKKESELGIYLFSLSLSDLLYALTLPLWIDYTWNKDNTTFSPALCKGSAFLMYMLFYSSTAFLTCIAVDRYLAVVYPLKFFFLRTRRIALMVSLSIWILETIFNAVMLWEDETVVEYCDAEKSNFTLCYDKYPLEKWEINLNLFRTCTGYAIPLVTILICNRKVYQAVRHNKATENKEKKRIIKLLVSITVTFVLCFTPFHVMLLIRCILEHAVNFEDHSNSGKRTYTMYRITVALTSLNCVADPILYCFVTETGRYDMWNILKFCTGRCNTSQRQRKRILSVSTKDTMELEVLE
T2 sequence (P46093 whole entry F19H/E51Q/F93P/Q349E): as the sequence (P46093 whole entry F19H/E51Q/F93P/Q349E) above
T4 sequence (Q8IYL9 whole entry A43P/W80T/N97L/F130I/Q180E): as the sequence (Q8IYL9 whole entry A43P/W80T/N97L/F130I/Q180E) above

Compound: CCCCCCCCCCCCC/C=C/[C@@H](O)[C@@H](N)COP(=O)([O-])OCC[N+](C)(C)C [SPC]
- Effect on pH-dependent stimulation of IP formation (OGR1 [1]; CCL39 cells expressing OGR1): does not affect pH-dependent stimulation of IP formation
- Stimulation of OGR1 (IP formation) (OGR1 [1]; CCL39 cells expressing OGR1): does not stimulate the receptor
- Activation of cAMP formation on its own (Human GPR4 [2]): does not activate cAMP formation on its own
- Effect on pH-dependent stimulation of cAMP formation (Human GPR4 [3]; GPR4): does not modulate pH-dependent stimulation
- Effect on forskolin-stimulated adenylyl cyclase [4]: inhibiting forskolin-stimulated adenylyl cyclase

Compound: CCCCCCCCCCCCC/C=C/[C@@H](O)[C@@H](N)CO[C@@H]1O[C@H](CO)[C@H](O)[C@H](O)[C@H]1O [Psychosine]
- Activation of cAMP formation on its own (Human TDAG8 [5]): does not activate cAMP formation on its own

Compound: thrombin: bovine thrombin, activates endogenous receptors in CCL39 cells
- pH modulation of the response to the receptor agonist (IP formation) ([6]; range of pH 7-8): not positively modulated

Compound: [Zn+2] [Zn^2+]
- Inhibition of OGR1-dependent IP formation (OGR1 [1]): strongly Inhibit
- Effect on thrombin-stimulated IP formation [6]: partial inhibition

Compound: [Cu+2] [Cu^2+]
- Inhibition of OGR1-dependent IP formation (OGR1 [1]): strongly Inhibit
- Effect on pH-stimulated IP formation ([7]; PTX pretreatment, or micromolar concentrations of copper ions): inhibited
- Effect on thrombin-stimulated IP formation [6]: without effect

Compound: [H+] [protons]
- Half-maximal activation of the receptor (IP formation) (OGR1 [1]; OGR1 expressed in CCL39 hamster fibroblasts, mean+/-sem, N=12, pH referenced to room temperature): 7.48+/−0.04 pH
- Hill coefficient of activation (OGR1 [1]; OGR1 in CCL39 hamster fibroblasts, IP formation): > 2
- Half-maximal activation of IP formation (OGR1 [1]; transiently transfected HEK cells, mean+/-sem, N=4): 7.38+/−0.04 pH
- Halfmaximal activation of IP formation ([7]; mean+/-sem, N=5): 7.46+/−0.01 pH
- Half-maximal activation (intracellular calcium response) (OGR1 [8]): 7.20+/−0.04 pH
- Half-maximal activation of cAMP formation by GPR4 (Human GPR4 [3]; transiently transfected HEK293 cells, mean+/-sem, N=6): 7.55+/−0.02 pH
- Half-maximal activation of cAMP formation by TDAG8 (Human TDAG8 [9]): 7.15+/−0.02 pH
- Half-maximal activation of luciferase induction by human TDAG8 (Human TDAG8 [10]): 7.28+/−0.02 pH
